From the NIST ThermoML archive (doi:10.1021/acs.jced.5b00181)
± gives the expanded uncertainty stated by the source.

Test: xn = mol fraction of the nth substance listed
Conditions: 101 kPa, Liquid; for viscosity: Falling or rolling sphere viscometry; for speed of sound: Frequency=3 MHz, Sing-around technique in a fixed-path interferometer; for mass density: Vibrating tube method

CCCC[n+]1ccn(C)c1.O=S(=O)([N-]S(=O)(=O)C(F)(F)F)C(F)(F)F + CCCO
Conditions | mass density [kg/m3] | speed of sound [m/s] | viscosity [mPa·s]
278.15 K, x1 = 0.0508 | 926.62 ± 2.1 | 1252.2 ± 0.84 | 4.722 ± 0.078
278.15 K, x1 = 0.0949 | 1002.03 ± 2.1 | 1241 ± 0.84 | 6.623 ± 0.087
278.15 K, x1 = 0.1989 | 1130.78 ± 2 | 1235.7 ± 0.87 | 11.44 ± 0.44
278.15 K, x1 = 0.2976 | 1214 ± 2 | 1239.7 ± 0.91 | 16.84 ± 0.45
278.15 K, x1 = 0.3912 | 1272.23 ± 2 | 1245.7 ± 0.95 | 22.98 ± 0.47
278.15 K, x1 = 0.4852 | 1317.37 ± 2 | 1250.9 ± 0.98 | 31.14 ± 0.5
278.15 K, x1 = 0.5929 | 1358.04 ± 2 | 1256.8 ± 1 | 42.15 ± 0.55
278.15 K, x1 = 0.692 | 1388.04 ± 2 | 1261.7 ± 1.1 | 56.15 ± 1.9
278.15 K, x1 = 0.7968 | 1414.14 ± 2.1 | 1266.2 ± 1.1 | 76.57 ± 2.2
278.15 K, x1 = 0.903 | 1436.28 ± 2.1 | 1270.3 ± 1.1 | 102.44 ± 3
298.15 K, x1 = 0.0508 | 909.64 ± 2.1 | 1188.9 ± 0.82 | 2.701 ± 0.071
298.15 K, x1 = 0.0949 | 984.4 ± 2.1 | 1181.4 ± 0.82 | 3.573 ± 0.074
298.15 K, x1 = 0.1989 | 1112.17 ± 2 | 1180.9 ± 0.86 | 5.908 ± 0.082
298.15 K, x1 = 0.2976 | 1194.92 ± 2 | 1187.6 ± 0.9 | 8.374 ± 0.095
298.15 K, x1 = 0.3912 | 1252.93 ± 2 | 1195.6 ± 0.93 | 10.88 ± 0.11
298.15 K, x1 = 0.4852 | 1297.96 ± 2 | 1201.7 ± 0.97 | 14.14 ± 0.44
298.15 K, x1 = 0.5929 | 1338.58 ± 2 | 1208.6 ± 1 | 18.55 ± 0.45
298.15 K, x1 = 0.692 | 1368.59 ± 2 | 1214.5 ± 1.1 | 23.83 ± 0.47
298.15 K, x1 = 0.7968 | 1394.7 ± 2 | 1219.5 ± 1.1 | 30.51 ± 0.5
298.15 K, x1 = 0.903 | 1416.85 ± 2.1 | 1224 ± 1.1 | 39.95 ± 0.56
318.15 K, x1 = 0.0508 | 892.29 ± 2.1 | 1127.5 ± 0.8 | 1.693 ± 0.069
318.15 K, x1 = 0.0949 | 966.47 ± 2.1 | 1123.7 ± 0.81 | 2.187 ± 0.07
318.15 K, x1 = 0.1989 | 1093.43 ± 2 | 1128.2 ± 0.84 | 3.491 ± 0.073
318.15 K, x1 = 0.2976 | 1175.83 ± 2 | 1137.6 ± 0.88 | 4.677 ± 0.077
318.15 K, x1 = 0.3912 | 1233.7 ± 2 | 1147.2 ± 0.92 | 6.173 ± 0.084
318.15 K, x1 = 0.4852 | 1278.71 ± 2 | 1154.6 ± 0.96 | 7.805 ± 0.093
318.15 K, x1 = 0.5929 | 1319.36 ± 2 | 1162.5 ± 1 | 10.1 ± 0.11
318.15 K, x1 = 0.692 | 1349.4 ± 2 | 1169.2 ± 1 | 12.76 ± 0.44
318.15 K, x1 = 0.7968 | 1375.56 ± 2 | 1174.9 ± 1.1 | 15.78 ± 0.45
318.15 K, x1 = 0.903 | 1397.74 ± 2.1 | 1180.1 ± 1.1 | 19.35 ± 0.46
338.15 K, x1 = 0.0508 | 874.3 ± 2.1 | – | 1.136 ± 0.069
338.15 K, x1 = 0.0519 | – | 1066.7 ± 0.78 | –
338.15 K, x1 = 0.0949 | 948.03 ± 2.1 | – | 1.457 ± 0.069
338.15 K, x1 = 0.1037 | – | 1066.7 ± 0.79 | –
338.15 K, x1 = 0.1989 | 1074.44 ± 2 | – | 2.303 ± 0.07
338.15 K, x1 = 0.2013 | – | 1076.8 ± 0.83 | –
338.15 K, x1 = 0.2976 | 1156.66 ± 2 | – | 3.004 ± 0.072
338.15 K, x1 = 0.3088 | – | 1089 ± 0.88 | –
338.15 K, x1 = 0.3912 | 1214.5 ± 2 | – | 3.93 ± 0.075
338.15 K, x1 = 0.3963 | – | 1100 ± 0.91 | –
338.15 K, x1 = 0.4852 | 1259.59 ± 2 | – | 4.908 ± 0.079
338.15 K, x1 = 0.4918 | – | 1109.1 ± 0.95 | –
338.15 K, x1 = 0.5723 | – | 1118.3 ± 0.98 | –
338.15 K, x1 = 0.5929 | 1300.32 ± 2 | – | 6.258 ± 0.085
338.15 K, x1 = 0.692 | 1330.43 ± 2 | – | 7.446 ± 0.092
338.15 K, x1 = 0.7026 | – | 1125.4 ± 1 | –
338.15 K, x1 = 0.7968 | 1356.65 ± 2 | – | 9.633 ± 0.11
338.15 K, x1 = 0.8055 | – | 1132 ± 1.1 | –
338.15 K, x1 = 0.9025 | – | 1137.8 ± 1.1 | –
338.15 K, x1 = 0.903 | 1378.89 ± 2.1 | – | 11.48 ± 0.44

CCn1cc[n+](C)c1.O=S(=O)([N-]S(=O)(=O)C(F)(F)F)C(F)(F)F + CCCO
Conditions | mass density [kg/m3] | speed of sound [m/s] | viscosity [mPa·s]
278.15 K, x1 = 0.4918 | 1372.4 ± 2 | 1253.1 ± 0.98 | 20.94 ± 0.46
278.15 K, x1 = 0.5723 | 1410.18 ± 2 | 1259.6 ± 1 | 25.39 ± 0.48
278.15 K, x1 = 0.7026 | 1459.58 ± 2.1 | 1268.7 ± 1.1 | 34.81 ± 0.52
278.15 K, x1 = 0.8055 | 1491.11 ± 2.1 | 1274.9 ± 1.1 | 44.9 ± 0.57
278.15 K, x1 = 0.9025 | 1516.35 ± 2.1 | 1280 ± 1.1 | 56.99 ± 1.9
298.15 K, x1 = 0.0519 | 914.24 ± 2.1 | 1184.8 ± 0.82 | 2.639 ± 0.071
298.15 K, x1 = 0.1037 | 1005.11 ± 2.1 | 1175.1 ± 0.83 | 3.53 ± 0.073
298.15 K, x1 = 0.2013 | 1134.16 ± 2.1 | 1175.8 ± 0.86 | 5.134 ± 0.079
298.15 K, x1 = 0.3088 | 1235.5 ± 2 | 1186.2 ± 0.9 | 6.891 ± 0.087
298.15 K, x1 = 0.3963 | 1297.78 ± 2 | 1195.6 ± 0.93 | 8.358 ± 0.095
298.15 K, x1 = 0.4918 | 1352.18 ± 2 | 1205 ± 0.97 | 10.6 ± 0.11
298.15 K, x1 = 0.5723 | 1389.87 ± 2 | 1212.2 ± 1 | 12.63 ± 0.44
298.15 K, x1 = 0.7026 | 1439.2 ± 2.1 | 1222.2 ± 1.1 | 16.89 ± 0.45
298.15 K, x1 = 0.8055 | 1470.7 ± 2.1 | 1228.9 ± 1.1 | 21.07 ± 0.46
298.15 K, x1 = 0.9025 | 1495.92 ± 2.1 | 1234.3 ± 1.1 | 25.97 ± 0.49
318.15 K, x1 = 0.0519 | 896.79 ± 2.1 | 1124.1 ± 0.8 | 1.656 ± 0.069
318.15 K, x1 = 0.1037 | 986.91 ± 2.1 | 1119.3 ± 0.81 | 2.083 ± 0.07
318.15 K, x1 = 0.2013 | 1115.01 ± 2 | 1124.8 ± 0.84 | 2.938 ± 0.072
318.15 K, x1 = 0.3088 | 1215.8 ± 2 | 1137.8 ± 0.89 | 3.978 ± 0.075
318.15 K, x1 = 0.3963 | 1277.87 ± 2 | 1148.3 ± 0.92 | 4.994 ± 0.079
318.15 K, x1 = 0.4918 | 1332.15 ± 2 | 1158.9 ± 0.96 | 6.245 ± 0.085
318.15 K, x1 = 0.5723 | 1369.81 ± 2 | 1166.8 ± 0.99 | 7.454 ± 0.091
318.15 K, x1 = 0.7026 | 1419.12 ± 2 | 1177.7 ± 1.1 | 9.792 ± 0.11
318.15 K, x1 = 0.8055 | 1450.62 ± 2.1 | 1185 ± 1.1 | 11.97 ± 0.44
318.15 K, x1 = 0.9025 | 1475.84 ± 2.1 | 1191 ± 1.1 | 14.58 ± 0.45
338.15 K, x1 = 0.0519 | 878.72 ± 2.1 | 1064.4 ± 0.78 | 1.117 ± 0.069
338.15 K, x1 = 0.1037 | 968.2 ± 2.1 | 1064.1 ± 0.79 | 1.389 ± 0.069
338.15 K, x1 = 0.2013 | 1095.6 ± 2 | 1074.6 ± 0.83 | 1.956 ± 0.07
338.15 K, x1 = 0.3088 | 1196.06 ± 2 | 1090.4 ± 0.88 | 2.656 ± 0.071
338.15 K, x1 = 0.3963 | 1258.02 ± 2 | 1102.6 ± 0.91 | 3.333 ± 0.073
338.15 K, x1 = 0.4918 | 1312.29 ± 2 | 1114.4 ± 0.95 | 4.156 ± 0.076
338.15 K, x1 = 0.5723 | 1349.96 ± 2 | 1123.2 ± 0.98 | 4.931 ± 0.079
338.15 K, x1 = 0.7026 | 1399.28 ± 2 | 1135.3 ± 1 | 6.395 ± 0.086
338.15 K, x1 = 0.8055 | 1430.83 ± 2.1 | 1143.2 ± 1.1 | 7.634 ± 0.094
338.15 K, x1 = 0.9025 | 1456.06 ± 2.1 | 1149.7 ± 1.1 | 9.201 ± 0.1
